BindingDB's records for doi:10.1021/acs.jnatprod.7b00282 (Chiba University, 2017)

Test: Inhibition of recombinant mouse N-terminal FLAG-tagged Notch1 (1704 to 2531 residues) expressed in human LS174T cells assessed as reduction in doxycycline-induced NICD expression after 12 hrs by Bright-Glo luciferase reporter gene assay

Row | Structure (SMILES) | IC50
1 | C[C@@H]1C[C@H](O)[C@]2(O)O[C@@H]3C[C@@]4(C=O)[C@@H](CC[C@@H]5[C@@H]4CC[C@]4(C)[C@@H](C6=CC(=O)OC6)CC[C@]54O)C[C@H]3O[C@@H]2O1 [CHEBI:3329] | 0.8 µM
2 | COC(=O)[C@@]1(O)C[C@@H](C)O[C@H]1O[C@@H]1C[C@@H]2CC[C@@H]3[C@H](CC[C@]4(C)[C@@H](C5=CC(=O)OC5)[C@H](O)C[C@]34O)[C@@]2(C=O)C[C@H]1O | 17.3 µM
3 | C[C@@H]1CC(=O)[C@]2(O)O[C@@H]3C[C@@]4(C=O)[C@@H](CC[C@@H]5[C@@H]4CC[C@]4(C)[C@@H](C6=CC(=O)OC6)CC[C@]54O)C[C@H]3O[C@@H]2O1 [CHEBI:9913] | 2.4 µM
4 | C[C@@H]1C[C@@]2(N=CCS2)[C@]2(O)O[C@@H]3C[C@@]4(C=O)[C@@H](CC[C@@H]5[C@@H]4CC[C@]4(C)[C@@H](C6=CC(=O)OC6)[C@H](O)C[C@]54O)C[C@H]3O[C@@H]2O1 | 0.7 µM
5 | CC(=O)O[C@H]1C[C@@H](C)O[C@H]2O[C@@H]3C[C@@H]4CC[C@@H]5[C@H](CC[C@]6(C)[C@@H](C7=CC(=O)OC7)CC[C@]56O)[C@@]4(C=O)C[C@H]3O[C@]21O [CHEBI:2867] | 0.3 µM
6 | C[C@@H]1C[C@@]2(NC(=O)CS2)[C@]2(O)O[C@@H]3C[C@@]4(C=O)[C@@H](CC[C@@H]5[C@@H]4CC[C@]4(C)[C@@H](C6=CC(=O)OC6)CC[C@]54O)C[C@H]3O[C@@H]2O1 | 0.3 µM
7 | C[C@@H]1C[C@@]2(NCCS2)[C@]2(O)O[C@@H]3C[C@@]4(C=O)[C@@H](CC[C@@H]5[C@@H]4CC[C@]4(C)[C@@H](C6=CC(=O)OC6)CC[C@]54O)C[C@H]3O[C@@H]2O1 | 2 µM
8 | C[C@@H]1C[C@@]2(N=CCS2)[C@]2(O)O[C@@H]3C[C@@]4(C=O)[C@@H](CC[C@@H]5[C@@H]4CC[C@]4(C)[C@@H](C6=CC(=O)OC6)CC[C@]54O)C[C@H]3O[C@@H]2O1 [Uscharin] | 0.4 µM
